Measured values as given in patent US11279733B2, “Peptide antibiotics” (priority 2017, dated 2022).
≈ marks a conversion by molar mass, not a printed value. Where two headings read alike, the source gives them in different places. Positions of bridges follow the written chain, without caps; N, C: chain ends. Non-standard residues stand in square brackets, D forms with d. Residues, ends and D or L forms follow the SMILES beside them. *: point of attachment. Isonicotinoyl(2-Ph) = O=C(c1ccnc(-c2ccccc2)c1)*; Decanoyl(3R-OH) = CCCCCCC[C@@H](O)CC(=O)*; Phe(4-NH2) = Nc1ccc(C[C@H](N)C(=O)O)cc1; Butanoyl(4-OPh) = O=C(CCCOc1ccccc1)*; dDab = NCC[C@@H](N)C(=O)O; Dab = NCC[C@H](N)C(=O)O

Experiments:
A. baumannii ATCC 19606 = settings: ATCC 19606
Summary of the method: (§1)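 Mid-log cultures grown in Mueller Hinton broth at 37° C were tested by 2-fold broth microdilution at 5×10^5 CFU/mL final. Compounds were dissolved in water and tested over a final range of 32 to 0.015 μg/mL.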

A. baumannii GN_093 PmxR = settings: GN 093 PmxR
Summary of the method: as §1

E. coli ATCC 25922 = settings: ATCC 25922
Summary of the method: as §1

K. pneumoniae ATCC 13883 = settings: ATCC 13883
Summary of the method: as §1

[1] = system: K. pneumoniae ATCC 700603, MDR; settings: ATCC 700603
Summary of the method: as §1

[2] = system: K. pneumoniae ATCC BAA-2146, NDM-1 pos; settings: ATCC BAA-2146
Summary of the method: as §1

[3] = system: K. pneumoniae GN_102 PmxR; settings: GN 102 PmxR
Summary of the method: as §1

[4] = system: K. pneumoniae GN_106, PmxR; settings: GN 106, PmxR
Summary of the method: as §1

P. aeruginosa ATCC 27853 = settings: ATCC 27853
Summary of the method: as §1

[5] = system: P. aeruginosa GN_043, PmxR
Summary of the method: as §1

[6] = system: P. aeruginosa GN_105, PmxR; settings: GN 105, PmxR
Summary of the method: as §1

[7] = system: S. aureus ATCC 25923, MSSA; settings: ATCC 25923
Summary of the method: as §1

in vitro [8] = settings: human
Summary of the method: (§2)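 Fluorescence read-out (excitation 560, emission 590) after a 2 h, 37 °C incubation with 5 μM resazurin, following 24 h compound treatment of cells plated at 4000 per well. CC50 values come from fitting dose–response curves of growth inhibition.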

in vitro [9] = settings: human; remark: listed apart in the source
Summary of the method: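 HK2 cells were seeded at 2000 per well in DMEM/F12 with 10% FBS and left to attach for 24 h at 37 °C, 5% CO2. They were then exposed for 24 h to 3-fold peptide dilutions starting from 600 μM solutions in quadruplicate. LDH release was read at 450 nm, and CC50 was fitted from dose-response curves.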

in vitro [10] = settings: human; remark: listed apart in the source
Summary of the method: as §2

Structure (SMILES) | MIC A. baumannii ATCC 19606 (A. baumannii ATCC 19606) | MIC A. baumannii GN_093 PmxR (A. baumannii GN_093 PmxR) | MIC E. coli ATCC 25922 (E. coli ATCC 25922) | MIC K. pneumoniae ATCC 13883 (K. pneumoniae ATCC 13883) | MIC K. pneumoniae ATCC 700603, MDR [1] | MIC K. pneumoniae ATCC BAA-2146, NDM-1 pos [2] | MIC K. pneumoniae GN_102 PmxR [3] | MIC K. pneumoniae GN_106, PmxR [4] | MIC P. aeruginosa ATCC 27853 (P. aeruginosa ATCC 27853) | MIC P. aeruginosa GN_043, PmxR [5] | MIC P. aeruginosa GN_105, PmxR [6] | MIC S. aureus ATCC 25923, MSSA [7] | CC50 at 24 h (in vitro [8]) | CC50 at 24 h (in vitro [9]) | CC50 at 24 h (in vitro [10]) | MIC P. aeruginosa GN_043, PmxR ([5]; P. aeruginosa GN_043, PmxR) | further results
CC(C)C[C@@H]1NC(=O)[C@H](CCN)NC(=O)[C@H](CCN)NC(=O)[C@H](CC(C)C)NC(=O)[C@@H](Cc2ccccc2)NC(=O)[C@H](CCN)NC(=O)[C@@H](NC(=O)[C@@H](CCN)NC(=O)c2ccnc(-c3ccccc3)c2)CCNC1=O [compound 6525, 3Phe4-PyCO-D-Dab-cyc[L-Dab-L-Dab-D-Phe-L-Leu-L-Dab-L-Dab-L-Leu]] ({Isonicotinoyl(2-Ph)}-[dDab][Dab][Dab][dF]L[Dab][Dab]L; lactam 2-C) | >32 µg/mL | >32 µg/mL | 4 µg/mL (≈ 3.79 µM) | 16 µg/mL (≈ 15.2 µM) | 8 µg/mL (≈ 7.58 µM) | 16 µg/mL (≈ 15.2 µM) | 16 µg/mL (≈ 15.2 µM) | >32 µg/mL | 4 µg/mL (≈ 3.79 µM) | 2 µg/mL (≈ 1.9 µM) | 8 µg/mL (≈ 7.58 µM) | >32 µg/mL | > 300 µM | > 300 µM | > 300 µM | – | –
CC(C)C[C@@H]1NC(=O)[C@H](CCN)NC(=O)[C@H](CCN)NC(=O)[C@H](CC(C)C)NC(=O)[C@@H](Cc2ccccc2)NC(=O)[C@H](CCN)NC(=O)[C@@H](NC(=O)[C@@H](CCN)NC(=O)CCCOc2ccccc2)CCNC1=O [compound 6529, 4-phenoxybutanoic acid-D-Dab-cyc[L-Dab-L-Dab-D-Phe-L-Leu-L-Dab-L-Dab-L-Leu]] ({Butanoyl(4-OPh)}-[dDab][Dab][Dab][dF]L[Dab][Dab]L; lactam 2-C) | >32 µg/mL | >32 µg/mL | 8 µg/mL (≈ 7.72 µM) | 16 µg/mL (≈ 15.4 µM) | 32 µg/mL (≈ 30.9 µM) | 32 µg/mL (≈ 30.9 µM) | >32 µg/mL | >32 µg/mL | 2 µg/mL (≈ 1.93 µM) | 1 µg/mL (≈ 0.965 µM) | 16 µg/mL (≈ 15.4 µM) | >32 µg/mL | > 300 µM | 199 µM | > 300 µM | – | –
CCCCCCC[C@@H](O)CC(=O)N[C@H](CCN)C(=O)N[C@H]1CCNC(=O)[C@H](CC(C)C)NC(=O)[C@H](CCNC(=O)[C@@H](N)CCCNC(=N)N)NC(=O)[C@H](CCN)NC(=O)[C@H](CC(C)C)NC(=O)[C@@H](Cc2ccccc2)NC(=O)[C@H](CCN)NC1=O [compound 6653, 3(R)OH-nC9CO-D-Dab-cyc[L-Dab-L-Dab-D-Phe-L-Leu-L-Dab-L-Dab(L-Arg)-L-Leu]] ({Decanoyl(3R-OH)}-[dDab][Dab][Dab][dF]L[Dab][Dab](Arg)L; lactam 2-C) | 4 µg/mL (≈ 3.33 µM) | 16 µg/mL (≈ 13.3 µM) | 16 µg/mL (≈ 13.3 µM) | 8 µg/mL (≈ 6.66 µM) | 8 µg/mL (≈ 6.66 µM) | 8 µg/mL (≈ 6.66 µM) | >32 µg/mL | 16 µg/mL (≈ 13.3 µM) | 4 µg/mL (≈ 3.33 µM) | – | 4 µg/mL (≈ 3.33 µM) | 32 µg/mL (≈ 26.7 µM) | > 300 µM | 64 µM | > 300 µM | – | MIC P. aeruginosa GN_043, PmxR ([5]; polymyxin-resistant): 2 µg/mL (≈ 1.67 µM)
CCCCCCC[C@@H](O)CC(=O)N[C@@H](CCN)C(=O)N[C@@H]1CCNC(=O)[C@H](CC(C)C)NC(=O)[C@H](CCN)NC(=O)[C@H](CCN)NC(=O)[C@H](CC(C)C)NC(=O)[C@@H](Cc2ccccc2)NC(=O)[C@H](CCN)NC1=O [compound 6658, 3(R)OH-nC9CO-L-Dab-cyc[D-Dab-L-Dab-D-Phe-L-Leu-L-Dab-L-Dab-L-Leu]] ({Decanoyl(3R-OH)}-[Dab][dDab][Dab][dF]L[Dab][Dab]L; lactam 2-C) | >32 µg/mL | >32 µg/mL | >32 µg/mL | >32 µg/mL | >32 µg/mL | >32 µg/mL | >32 µg/mL | >32 µg/mL | 32 µg/mL (≈ 30.6 µM) | – | >32 µg/mL | >32 µg/mL | > 300 µM | > 300 µM | > 300 µM | >32 µg/mL | –
CCCCCCC[C@@H](O)CC(=O)N[C@@H](CCN)C(=O)N[C@@H]1CCNC(=O)[C@H](CC(C)C)NC(=O)[C@H](CCN)NC(=O)[C@H](CCN)NC(=O)[C@H](C)NC(=O)[C@@H](Cc2ccccc2)NC(=O)[C@H](CCN)NC1=O [compound 6660, 3(R)OH-nC9CO-L-Dab-cyc[D-Dab-L-Dab-D-Phe-L-Ala-L-Dab-L-Dab-L-Leu]] ({Decanoyl(3R-OH)}-[Dab][dDab][Dab][dF]A[Dab][Dab]L; lactam 2-C) | >32 µg/mL | >32 µg/mL | >32 µg/mL | >32 µg/mL | >32 µg/mL | >32 µg/mL | >32 µg/mL | >32 µg/mL | >32 µg/mL | – | >32 µg/mL | >32 µg/mL | > 300 µM | > 300 µM | > 300 µM | >32 µg/mL | –
CCCCCCC[C@@H](O)CC(=O)N[C@H](CCN)C(=O)N[C@H]1CCNC(=O)[C@H](CC(C)C)NC(=O)[C@H](CCN)NC(=O)[C@H](CCN)NC(=O)[C@H](CC(C)C)NC(=O)[C@@H](Cc2ccccc2)NC(=O)[C@H](Cc2ccc(N)cc2)NC1=O [compound 8635, 3(R)OH-nC9CO-D-Dab-cyc[L-Dab-L-4NH2Phe-D-Phe-L-Leu-L-Dab-L-Dab-L-Leu]] ({Decanoyl(3R-OH)}-[dDab][Dab][Phe(4-NH2)][dF]L[Dab][Dab]L; lactam 2-C) | – | – | – | – | – | – | – | – | – | – | – | – | > 300 µM | 219 µM | > 300 µM | – | MIC, A. baumannii ATCC 19606 (A. baumannii ATCC 19606): >32 µg/mL; MIC, A. baumannii Cl Ptyela 10073 4512:2, PmxR (A. baumannii GN_093 PmxR): >32 µg/mL; MIC, E. coli ATCC 25922 (E. coli ATCC 25922): 16 µg/mL (≈ 14.5 µM); MIC, K. pneumoniae ATCC 13883 (K. pneumoniae ATCC 13883): >32 µg/mL; MIC, K. pneumoniae ATCC 700603, MDR [1]: 32 µg/mL (≈ 28.9 µM); MIC, K. pneumoniae ATCC BAA-2146, NDM-1 pos [2]: 16 µg/mL (≈ 14.5 µM); MIC, K. pneumoniae Cl Koprana 10065 0661:1, PmxR [3]: >32 µg/mL; MIC, K. pneumoniae Cl 138-16347-20362, PmxR [4]: >32 µg/mL; MIC, P. aeruginosa ATCC 27853 (P. aeruginosa ATCC 27853): 16 µg/mL (≈ 14.5 µM); MIC, P. aeruginosa FADDI-PA070, PmxR ([5]; Table 5, polymyxin-resistant): 16 µg/mL (≈ 14.5 µM); MIC, P. aeruginosa PA9704, PmxR [6]: >32 µg/mL; MIC, S. Aureus ATCC 25923, MSSA [7]: 32 µg/mL (≈ 28.9 µM)
